The target of the test is T1, SPNS2 (Mus musculus, UniProt Q91VM4).
T1 construct: expressed in transfected cells; host or cells: HeLa or U937 cells
T1 sequence (Q91VM4 1-549): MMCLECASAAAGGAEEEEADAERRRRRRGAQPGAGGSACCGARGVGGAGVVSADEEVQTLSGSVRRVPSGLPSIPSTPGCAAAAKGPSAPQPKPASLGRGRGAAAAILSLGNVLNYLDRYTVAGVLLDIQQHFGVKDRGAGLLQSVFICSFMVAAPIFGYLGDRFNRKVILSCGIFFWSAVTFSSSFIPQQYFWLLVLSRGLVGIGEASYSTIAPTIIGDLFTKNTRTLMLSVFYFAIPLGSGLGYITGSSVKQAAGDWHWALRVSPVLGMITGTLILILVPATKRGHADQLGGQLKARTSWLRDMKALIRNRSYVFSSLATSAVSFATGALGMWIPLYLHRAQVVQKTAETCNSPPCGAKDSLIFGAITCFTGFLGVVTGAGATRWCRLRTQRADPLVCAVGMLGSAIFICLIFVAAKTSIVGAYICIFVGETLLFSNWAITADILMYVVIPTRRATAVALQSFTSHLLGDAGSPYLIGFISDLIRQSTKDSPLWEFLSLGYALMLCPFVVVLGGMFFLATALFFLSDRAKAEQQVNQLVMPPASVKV
Nature of the test: S1P transporter assay: S1P release from whole cells expressing SPNS2. It counts as cell-based. The settings on record: HeLa or U937 cells expressing mouse SPNS2; 18 hours; S1P in media measured by LC-MS; read-out: IC50 (in vitro inhibition against SPNS2). Here is the method:
Transporter assays are vectorial and therefore require measurement of the transported analyte in different compartments. The S1P transporter SPNS2 only exports S1P, which obviates measuring uptake of S1P into transporter-expressing cells. Thus, transporter activity was determined by quantifying S1P release from whole cells expressing SPNS2. SPNS2 inhibitor potency was assessed using whole cell assays. HeLa or U937 cells expressing mouse SPNS2 were used to determine inhibitor potency (IC50). Cells were plated onto 12 well plates and assayed when the cell monolayers became confluent. Cell growth media (RPMI-1640 containing 10% fetal bovine serum) was replaced with 2 mL of serum-free media (RPMI-1640) containing fatty acid free bovine serum albumin (BSA) (0.2% w/v) and supplemented with 4-deoxypyridoxine (DOP) (1 mM), NaF (2 mM), Na3VO4 (0.2 mM) to inhibit S1P degradation. Test articles (1×10-9-1×10^-4 M) were assayed in duplicate or triplicate. After 18 hours, media was collected, an internal recovery standard (0.005 mL of 5×10^-7 M deuterated (d7) S1P in methanol) was added, the BSA was precipitated with trichloroacetic acid and the bound S1P extracted with methanol. S1P and S1P-d7 were measured by liquid chromatography mass spectrometry. Inhibitor potency at the human SPNS2 ortholog was determined by an analogous assay using U-937 cells, which endogenously express human SPNS2.

Molecules are shown by their SMILES. Counter-ions that a name gives are not always drawn.

For orientation: IC50 means the concentration needed to halve the response being measured. As for `CCCCCCCCCCc1ccc(-c2noc(CNC(=O)[C@@H](N)CO)n2)cc1` [Compound 9s, (S)-2-amino-N-((3-(4-decylphenyl)-1,2,4-oxadiazol-5-yl)methyl)-3-hydroxypropanamide hydrochloride], the IC50 was more than 2 µM.

For `CCCCCCCCCCc1ccc(-c2noc(CCCNC)n2)cc1` [Compound 5m, 3-(3-(4-decylphenyl)-1,2,4-oxadiazol-5-yl)-N-methylpropan-1-amine hydrochloride], the IC50 was more than 2 µM.

With `CCCCCCCCCCc1ccc(-c2noc(CN)n2)cc1` [Compound 5f, (3-(4-decylphenyl)-1,2,4-oxadiazol-5-yl)methanamine 2,2,2-trifluoroacetate], the IC50 was not above 2 µM.

Consider `CCCCCCCCCCc1ccc(-c2noc(CNC(=O)[C@@H]3CC[C@@H](N)C3)n2)cc1` [Compound 9ah, (1R,3R)-3-amino-N-((3-(4-decylphenyl)-1,2,4-oxadiazol-5-yl)methyl)cyclopentane-1-carboxamide hydrochloride], for which the IC50 is not above 2 µM.

Regarding `CCCCCCCCCCc1ccc(-c2noc([C@@H](N)CCCCN)n2)cc1` [Compound 19a, (S)-1-(3-(4-decylphenyl)-1,2,4-oxadiazol-5-yl)pentane-1,5-diamine hydrochloride], the IC50 is not above 2 µM.

In the case of `CCCCCCCCCCc1ccc(-c2noc(CNC(=O)[C@@H](N)C(C)C)n2)cc1` [Compound 9f, (S)-2-amino-N-((3-(4-decylphenyl)-1,2,4-oxadiazol-5-yl)methyl)-3-methylbutanamide hydrochloride], the IC50 is more than 2 µM.

On to `CCCCCCCCCCc1ccc(-c2noc([C@@H]3CC[C@H](N)C3)n2)cc1` [Compound 5d, (1S,3R)-3-(3-(4-decylphenyl)-1,2,4-oxadiazol-5-yl)cyclopentan-1-amine hydrochloride], for which the half-maximal inhibitory concentration (IC50) is more than 2 µM.

Consider `CCCCCCCCCOc1ccc(-c2noc(CCCN)n2)cc1C(F)(F)F` [Compound 5u, 3-(3-(4-(nonyloxy)-3-(trifluoromethyl)phenyl)-1,2,4-oxadiazol-5-yl)propan-1-amine hydrochloride], for which the IC50 is more than 2 µM.

On to `CCCCCCCCCCc1ccc(-c2noc(CNC(=O)[C@@H](N)CCCC(=O)OC)n2)cc1` [Compound 9aa, methyl (S)-5-amino-6-(((3-(4-decylphenyl)-1,2,4-oxadiazol-5-yl)methyl)amino)-6-oxohexanoate hydrochloride], for which the IC50 was not above 2 µM.

Turning to `CCCCNC(=O)c1ccc(-c2noc([C@@H]3CCNC3)n2)cc1` [Compound 13a, (R)—N-butyl-4-(5-(pyrrolidin-3-yl)-1,2,4-oxadiazol-3-yl)benzamide hydrochloride], the IC50 was more than 2 µM.

With `CCCCCCCCCCc1ccc(-c2noc([C@@H]3CCN(C(=O)[C@H](C)N)C3)n2)cc1` [Compound 9ak, (S)-2-amino-1-((R)-3-(3-(4-decylphenyl)-1,2,4-oxadiazol-5-yl)pyrrolidin-1-yl)propan-1-one 2,2,2-trifluoroacetate], the IC50 is not above 2 µM.

Consider `NCCCc1nc(-c2ccc(OCc3ccccc3)cc2)no1` [Compound 5i, 3-(3-(4-(benzyloxy)phenyl)-1,2,4-oxadiazol-5-yl)propan-1-amine hydrochloride], for which the IC50 is more than 2 µM.

Consider `C/C(=N\OCCCCc1ccccc1)c1ccc(-c2noc(CCCN)n2)cc1` [Compound 28, 1-(4-(5-(3-aminopropyl)-1,2,4-oxadiazol-3-yl)phenyl)ethan-1-one 0-(4-phenylbutyl) oxime hydrochloride], for which the IC50 is more than 2 µM.

For `CCCCCCCCCCc1ccc(-c2noc(CNC(=O)[C@@H]3CCC[C@H](N)C3)n2)cc1` [Compound 9r, (1R,3S)-3-amino-N-((3-(4-decylphenyl)-1,2,4-oxadiazol-5-yl)methyl)cyclohexane-1-carboxamide hydrochloride], the IC50 is not above 2 µM.

For the compound `CCCCCCCCCCc1ccc(-c2noc(CNC(=O)CN(C)C)n2)cc1` [Compound 9ab, N-((3-(4-decylphenyl)-1,2,4-oxadiazol-5-yl)methyl)-2-(dimethylamino)acetamide hydrochloride], the IC50 was more than 2 µM.

As for `CCCCCCCCCCc1ccc(-c2noc(CNC(=O)[C@@H]3CCCN3)n2)cc1` [Compound 9m, (S)—N-((3-(4-decylphenyl)-1,2,4-oxadiazol-5-yl)methyl)pyrrolidine-2-carboxamide hydrochloride], the IC50 is not above 2 µM.

Consider `CCCCCCCCCCc1ccc(-c2noc(CNC(=O)[C@@H](N)Cc3ccccc3)n2)cc1` [Compound 9ac, (S)-2-amino-N-((3-(4-decylphenyl)-1,2,4-oxadiazol-5-yl)methyl)-3-phenylpropanamide hydrochloride], for which the IC50 was more than 2 µM.

On to `CCCCCCCCCCc1ccc(-c2noc([C@H](N)CCCCN)n2)cc1` [Compound 19d, (R)-1-(3-(4-decylphenyl)-1,2,4-oxadiazol-5-yl)pentane-1,5-diamine dihydrochloride], for which the IC50 was more than 2 µM.

As to `CCCCCCCCCCc1ccc(-c2noc(CNC(=O)CCN)n2)cc1` [Compound 9e, 3-amino-N-((3-(4-decylphenyl)-1,2,4-oxadiazol-5-yl)methyl)propanamide hydrochloride], the IC50 was more than 2 µM.

In the case of `CCCCCCCCCCc1ccc(-c2noc([C@@H]3CCN(C(=O)[C@@H](N)C(C)C)C3)n2)cc1` [Compound 9ai, (S)-2-amino-1-((R)-3-(3-(4-decylphenyl)-1,2,4-oxadiazol-5-yl)pyrrolidin-1-yl)-3-methylbutan-1-one 2,2,2-trifluoroacetate], the IC50 is not above 2 µM.

For the compound `CCCCCCCCCOc1ccc(-c2noc(CCCN)n2)cc1F` [Compound 5v, 3-(3-(3-fluoro-4-(nonyloxy)phenyl)-1,2,4-oxadiazol-5-yl)propan-1-amine hydrochloride], the IC50 is not above 2 µM.

As for `CCCCCCCCCCc1ccc(-c2noc(CCCN3CCCCC3)n2)cc1` [Compound 6e, 3-(4-decylphenyl)-5-(3-(piperidin-1-yl)propyl)-1,2,4-oxadiazole hydrochloride], the IC50 was more than 2 µM.

For the compound `CCCCCCCCCCc1ccc(-c2noc(CCCN3CCOCC3)n2)cc1` [Compound 6f, 4-(3-(3-(4-decylphenyl)-1,2,4-oxadiazol-5-yl)propyl)morpholine hydrochloride], the IC50 is more than 2 µM.

For `CCCCCCCCCCc1ccc(-c2noc(CNC(=O)[C@@H]3C[C@@H](O)CN3)n2)cc1` [Compound 9w, (2S,4R)—N-((3-(4-decylphenyl)-1,2,4-oxadiazol-5-yl)methyl)-4-hydroxypyrrolidine-2-carboxamide hydrochloride], the IC50 is more than 2 µM.

For the compound `CCCCCCCCCCc1ccc(-c2noc(CC(O)CN)n2)cc1` (centres unmarked) [Compound 5g, 1-amino-3-(3-(4-decylphenyl)-1,2,4-oxadiazol-5-yl)propan-2-ol hydrochloride], the IC50 was more than 2 µM.

Take `CCCCCCCCCCc1ccc(-c2noc(CCCN(C)C)n2)cc1` [Compound 5l, 3-(3-(4-decylphenyl)-1,2,4-oxadiazol-5-yl)-N,N-dimethylpropan-1-amine hydrochloride]: the IC50 was more than 2 µM.

For `CCCCCCCCCCc1ccc(-c2noc(CNC(=O)[C@@H](N)CC(C)C)n2)cc1` [Compound 9ad, (S)-2-amino-N-((3-(4-decylphenyl)-1,2,4-oxadiazol-5-yl)methyl)-4-methylpentanamide hydrochloride], the concentration for half-maximal inhibition (IC50) was more than 2 µM.

In the case of `CCCCCCCCCOc1ccc(-c2noc(CCCN)n2)cc1` [Compound 5t, 3-(3-(4-(nonyloxy)phenyl)-1,2,4-oxadiazol-5-yl)propan-1-amine hydrochloride], the IC50 was more than 2 µM.

Turning to `CCCCCCCCCc1ccc(Cc2noc(CCCN)n2)cc1` [Compound 5r, 3-(3-(4-nonylbenzyl)-1,2,4-oxadiazol-5-yl)propan-1-amine hydrochloride], the IC50 is more than 2 µM.

On to `CCCCCCCCCCc1ccc(-c2noc(CC(O)CN3CCOCC3)n2)cc1` (centres unmarked) [Compound 6c, 1-(3-(4-decylphenyl)-1,2,4-oxadiazol-5-yl)-3-morpholinopropan-2-ol hydrochloride], for which the IC50 is more than 2 µM.

In the case of `CCCCCCCCNC(=O)c1ccc(-c2noc(CCCN)n2)cc1` [Compound 13d, 4-(5-(3-aminopropyl)-1,2,4-oxadiazol-3-yl)-N-octylbenzamide hydrochloride], the IC50 is more than 2 µM.

As for `CCCCCCCCCCc1ccc(-c2noc(CNC(=O)C3CCCCCN3)n2)cc1` (centres unmarked) [Compound 9u, N-((3-(4-decylphenyl)-1,2,4-oxadiazol-5-yl)methyl)azepane-2-carboxamide hydrochloride], the 50% inhibitory concentration (IC50) was not above 2 µM.

The record behind these values is US20230373937A1, “INHIBITORS OF SPINSTER HOMOLOG 2 (SPNS2) FOR USE IN THERAPY” (University of Virginia Patent Foundation, priority 2020, published 2023).
